Type in all cases: cell-based, human
The subject of experiment [1] is AsPC-1 cells (KRAS G12D mutation). The experiment in a line: 3D cell proliferation assay (CellTiter Glo-3D), AsPC-1. Particulars: medium with 2% FBS, read-out: AsPC-1 AP IC50. From the text: (§1) MIA PaCa-2 cells were purchased from ATCC, Cat. No. CRL-1420; AsPC-1 cells were purchased from ATCC, Cat. No. CRL-1682; NCI-H441 cells were purchased from ATCC, Cat. No. HTB-174: NCI-H1975 cells were purchased from ATCC. Cat. No. CRL-5908; DMEM medium was purchased from Gibco, Cat. No. 11995-065: RPMI-1040 medium was purchased from Gibco. Cat. No. H 18754093; FBS was purchased from Gibco, Cat. No. 10099-141C. penicillin, streptomycin double-antibiotic solution (PS) was purchased from Gibco, Cat. No. 15140-122; Horse serum was purchased from Gibco. Cat. No. 16050130: trypsin (containing EDTA) was purchased from Gibco, Cat. No. 25200-072; DMSO was purchased from VWRAMRESCO, Cat. No. 0231-500ML; 384-well cell culture plates were purchased from Corning, Cat. No. 3830; white-bottomed, opaque 384-well assay plates were purchased from Corning, Cat. No. 3570. CellTiter Glo-3D) kit was purchased from Promega. Cat. No. G9683; cell counter was purchased from CHEMOMETEC, model: NC-200: microplate reader was purchased from PerkinElmer, model: EnVision.
(§2) MIA PaCa-2, a human pancreatic cancer cell strain endogenously containing a KRAS^G12C mutation, was cultured in a complete medium containing DMEM+10% FBS+2.5% Horse serum+1% PS. AsPC-1, a human pancreatic cancer cell strain endogenously containing a […] mutation, was cultured in a complete medium containing RPMI-1640+10% FBS+1% PS. NCI-H441 cells, a human lung cancer cell strain endogenously containing a […] mutation, were cultured in a complete medium containing RPMI-1640+10% FBS+1% PS. NCI-H1975, a KRAS wild-type human lung cancer cell strain whose cell proliferation depends on KRAS activity, was cultured in a complete medium containing RPMI-1640+10% FBS+1% PS.
(§3) The cells were digested with trypsin (containing EDTA), collected in their respective low-serum complete media containing 2% FBS (for MIA Paca-2 cell culture: DMEM+2% FBS+0.5% Horse serum+1% PS), and counted. After the cell density was adjusted as required, 200 MIA PaCa-2 cells, 800 AsPC-1 cells, 800 NCI-H441 cells, or 400 NCI-H1975 cells per well were seeded into a 384-well cell culture plate, with the volume of the medium in each well being 45 μL. The cell culture plate was incubated in an incubator at 37° C. with 5% CO2, overnight. A series of 3.16-fold gradient dilutions of a 1000× compound stock solution were prepared with DMSO, and then diluted 100-fold with the complete medium containing 2% FBS described above to give 10- compound stock solutions. On the day after cell seeding, 5 μL of the 10- compound stock solution was added to each cell culture well. As a result, the final concentration of the compound in the cell culture well became 1×, and the DMSO content in the well was 0.1%. In addition to the compound-treated wells described above, cell-containing DMSO control wells (with 5 μL of the complete medium containing 1% DMSO added to each well) and cell-free medium control wells (containing 50 μL of the complete medium with 2% FBS) were also set. The culture plate was incubated in an incubator at 37° C. with 5% CO2 for another 5 days, and then 30 μL of CellTiter-Glo working solution was added to each well. The mixture was well mixed, incubated for 30 min, left to stand at room temperature for 30 min, and then transferred to a white-bottomed, opaque 384-well assay plate at 40 μL/well. The chemiluminescence values (RLU) were measured using a microplate reader, and the cell proliferation inhibition rate for each well was calculated: IR (%)=(RLUDMSO—RLUcompound)/(RLUDMSO−RLUblank)×100%, where RLUDMSO is the average RLU signal value from the DMSO control well samples, RLUblank is the average RLU signal value from the medium control well samples, and RLUcompound is the RLU signal value from the compound-treated well samples. […]
On the technique in general: Cellular ATP, detected with luciferase, serves as a proxy for viable cell number.

The subject of a further experiment is NCI-H441 cells. Put plainly: 3D cell proliferation assay (CellTiter Glo-3D), NCI-H441. Particulars: medium with 2% FBS, read-out: H441 AP IC50.
Text: as §1, §2, §3

Experiment [2] has as its system p-ERK in NCI-H441 cells (KRAS G12V mutation). Put plainly: Cell p-ERK assay (HTRF) in NCI-H441 cells. To be noted: NCI-H441 cells, 3 h compound incubation, HTRF p-ERK T202/Y204, read-out: H441 p-ERK IC50. Summed up:
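IC50 values derive from four-parameter fitting of p-ERK (T202/Y204) HTRF inhibition, normalized to DMSO and blank controls. The lysates came from cells exposed for 3 h to serial 3.16-fold compound dilutions at 0.1% DMSO, after overnight plating at 10000 AsPC-1 or 20000 NCI-H441 cells per well.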

Experiment [3] concerns p-ERK in AsPC-1 cells (KRAS G12D mutation). Put plainly: Cell p-ERK assay (HTRF) in AsPC-1 cells. To be noted: AsPC-1 cells, 3 h compound incubation, HTRF p-ERK T202/Y204, read-out: AsPC-1 p-ERK IC50. The protocol:
AsPC-1 cells were purchased from ATCC, Cat. No. CRL-1682: NCI-H441 cells were purchased from ATCC, Cat. No. HTB-174: RPMI-1640 medium was purchased from Gibco, Cat. No. I1875-093: FBS was purchased from Gibco, Cat. No. 10099-141C: penicillin/streptomycin double-antibiotic solution (PS) was purchased from Gibco, Cat. No. 15140-122: trypsin (containing EDTA) was purchased from Gibco, Cat. No. 25200-072; DMSO was purchased from VWRAMRESCO, Cat. No. 0231-500ML; 96-well cell culture plates were purchased from Corning, Cat. No. 3599: white-bottomed, opaque 96-well plates were purchased from Cisbio, Cat. No. 66PL96025; Advance ERK phospho-T202/Y204 kit was purchased from Cisbio, Cat. No. 64AERPEH; cell counter was purchased from CHEMOMETEC, model: NC-200; microplate reader was purchased from PerkinElmer, model: EnVision.
AsPC-1, a human pancreatic cancer cell strain endogenously containing a KRAS^G12D mutation, was cultured in a complete medium containing RPMI-1640+10% FBS+1% PS. NCI-H441, a human non-small cell lung cancer cell strain endogenously containing a KRAS^G12V mutation, was cultured in a complete medium containing RPMI-1640+10% FBS+1% PS.
The cells were digested with trypsin (containing EDTA), collected in their corresponding complete media, and counted. The density of the cell suspensions was adjusted with their corresponding complete media, and 10000 AsPC-1 cells or 20000 NCI-H441 cells per well were seeded into a 96-well cell culture plate, with the volume of the medium in each well being 80 μL.
The cell culture plate was incubated in an incubator at 37° C. with 5% CO2 overnight. A series of 3.16-fold gradient dilutions of a 1000- compound stock solution were prepared with DMSO, and then diluted 200-fold with the complete medium described above to give 5′ compound stock solutions. On the day after cell seeding, 20 μL of the 5× compound stock solution was added to each cell culture well. As a result, the final concentration of the compound in the cell culture well became 1×, and the DMSO content in the well was 0.1%. In addition to the compound-treated wells described above, cell-containing DMSO control wells were also set. A complete medium containing 0.5% DMSO was added at 20 μL/well. After the mixture was well mixed, the culture plate was incubated in the incubator at 37° C. with 5% CO2 for another 3 h. The medium was then removed from the culture wells, and 50 μL of cell lysis buffer (from Advance ERK phospho-T202,Y204 kit) was added to each well. The mixture was well mixed and incubated for 30 min. Then, 16 μL of the mixture was transferred to a white-bottomed, opaque 96-well assay plate, and separately, 16 μL of cell lysis buffer was added to additional wells (serving as blank wells) in the assay plate. After the transfer was completed, 4 μL of p-ERK HTRF antibody mixture (from Advance ERK phospho-T202/Y204 kit) was added to each well of the assay plate, followed by a 4-hour incubation. The HTRF signal values (RLU) were then measured using a microplate reader, and the inhibition rate of the compound against p-ERK levels was calculated as follows: IR (%)=(RLUDMSO−RLUcompound)/(RLUDMSO−RLUblank)×100%, where RLUDMSO is the average HTRF signal value from the DMSO control well samples, RLUblank is the average HTRF signal value from the blank well samples, and RLUcompound is the HTRF signal value from the compound-treated well samples. Using an XLfit software, the IR (%) values were plotted against the logarithm of the compound concentrations, and the dose-response curves were fitted using the four-parameter method to calculate the IC50 values.

Where [4] appears, read: Homo sapiens, NCI-H441, 3D cell proliferation (CellTiter Glo-3D).
The mark [5] stands for this setting: 3D cell proliferation (CellTiter Glo-3D).

Where a name gives a salt, the structure may show the parent alone. Read-outs that look alike come from different tables or passages of the source.

Experimental findings from patent US20260234165A1, “MACROCYCLIC COMPOUNDS, PREPARATION METHOD THEREFOR, AND USE THEREOF” (GENFLEET THERAPEUTICS (SHANGHAI) INC., priority 2004, published 2026) are described below.

In the case of `CCn1c(-c2cc(N3CCN(C)CC3)cnc2[C@H](C)OC)c2c3cc(ccc31)-c1csc(n1)C[C@H](NC1CCN(C)C1=O)C(=O)N1CCC[C@H](N1)C(=O)OCC(C)(C)C2` (atropisomer, axis not shown; (Ra)) [Compound Z70, (6^3S,4S,Z)-1^1-ethyl-(Ra)-1^2-(2-((S)-1-methoxyethyl)-5-(4-methylpiperazin-1-yl)pyridin-3-yl)-10,10-dimethyl-4-((1-methyl-2-oxopyrrolidin-3-yl)amino)-6^1,6^2,6^3,6^4,6^5,6^6-hexahydro-1^1H-8-oxa-2(4,2)-thiazola-1(5,3)-indola-6(1,3)-pyridazinacycloundecaphane-5,7-dione formate], the IC50 (commonly the point on the concentration scale where inhibition reaches its midpoint) in experiment [1] (Homo sapiens, ASPC1, 3D cell proliferation (CellTiter Glo-3D)) was determined as 416 nM; in the experiment on NCI-H441 cells (setting [4]) it was 344 nM.

`CCn1c(-c2cc(N3CCN(C)CC3)cnc2[C@H](C)OC)c2c3cc(ccc31)-c1csc(n1)C[C@H](Nc1ccccn1)C(=O)N1CCC[C@H](N1)C(=O)OCC(C)(C)C2` (atropisomer, axis not shown; (Ra)) [Compound Z69, (6^3S,Z)-1^1-ethyl-(Ra)-1^2-(2-((S)-1-methoxyethyl)-5-(4-methylpiperazin-1-yl)pyridin-3-yl)-10,10-dimethyl-4-(pyridin-2-ylamino)-6^1,6^2,6^3,6^4,6^5,6^6-hexahydro-1^1H-8-oxa-2(4,2)-thiazola-1(5,3)-indola-6(1,3)-pyridazinacycloundecaphane-5,7-dione]: the 50% inhibitory concentration (IC50) turned out to be 347 nM in experiment [1] (setting [5]) and 399 nM in the experiment on NCI-H441 cells (setting [5]).

On to `CCn1c(-c2cc(N3CCN4CC5(CC5)OC[C@@H]4C3)cnc2[C@H](C)OC)c2c3cc(ccc31)-c1csc(n1)C[C@H](NC(=O)[C@H]1[C@H](C)[C@@H]1C)C(=O)N1CCC[C@H](N1)C(=O)OCC1(CCC1)C2` [Compound Z467, (1r,2R,3S)—N-((3′S,4′S,Z)-1′-ethyl-2′-(2-((S)-1-methoxyethyl)-5-((S)-tetrabydro-4H-spiro[cyclopropane-1,3′-pyrazino[2,1-c][1,4]oxazin]-8′(1′H)-yl)pyridin-3-yl)-5′,7′-dioxospiro[cyclobutane-1,10′-8-oxa-2(4,2)-thiazola-1(5,3)-indola-6(1,3)-pyridazinacycloundecaphan]-4′-yl)-2,3-dimethylcyclopropane-1-carboxamide], for which the concentration for half-maximal inhibition (IC50) in experiment [2] (Homo sapiens, NCI-H441, 3 h) was 28.2 nM; in experiment [3] (Homo sapiens, ASPC1, 3 h), 69 nM; in the experiment on NCI-H441 cells (setting [4]), 58.4 nM.

Consider `CCn1c(-c2cc(N3CCN(C)CC3)cnc2[C@H](C)OC)c2c3cc(ccc31)-c1csc(n1)C[C@H](Nc1cccnn1)C(=O)N1CCC[C@H](N1)C(=O)OCC(C)(C)C2` (atropisomer, axis not shown; (Ra)) [Compound Z457, (6^3S,4S,Z)-1^1-ethyl-(Ra)-1^2-(2-((S)-1-methoxyethyl)-5-(4-methylpiperazin-1-yl)pyridin-3-yl)-10,10-dimethyl-4-(pyridazin-3-ylamino)-6^1,6^2,6^3,6^4,6^5,6^6-hexahydro-1^1H-8-oxa-2(4,2)-thiazola-1(5,3)-indola-6(1,3)-pyridazinacycloundecaphane-5,7-dione], for which the half-maximal inhibitory concentration (IC50) in experiment [2] (Homo sapiens, NCI-H441, 3 h) turned out to be 26.1 nM; in experiment [3] (Homo sapiens, ASPC1, 3 h), 92 nM; with NCI-H441 cells (setting [4]) it was 27.6 nM.

Consider “(2R)—N-(5-((6^3S,4S,Z)-4-((1r, 2R,3S)-2,3-dimethylcyclopropane-1-carboxamido)-1^1-ethyl-10,10-dimethyl-5,7-dioxo-6^1,6^2,6^3,6^4,6^5,6^6-hexahydro-1^1H-8-oxa-2(4,2)-thiazola-1(5,3)-indola-6(1,3)-pyridazinacycloundecaphane-2-yl)-6-((S)-1-methoxyethyl)pyridin-3-yl)-N,1-dimethylazepane-2-carboxamide [Compound Z355]”, for which the 50% inhibitory concentration (IC50) in experiment [2] came out at 45.7 nM; in experiment [3], 109 nM; in the experiment on NCI-H441 cells (setting [5]), 54.7 nM.
